Experimental data taken from patent US11446270B2, “Leonurine crystal and use thereof in preparation of insulin sensitizer, hypoglycemic drug and lipid-lowering drug” (ZHUHAI HENGQIN NEW DISTRICT ZHONGZHU ZHENGTAI MEDICAL …, priority 2017, dated 2022).
“Also recorded” adds a separate entry of the source.

Legend:
Sprague-Dawley rats [1] = test: Chronic administration for 3 weeks, glucose tolerance test (OGTT) in rats; assay type: in vivo; settings: rat, vs solvent control, listed as leonurine crystal form A
Procedure: […] male Sprague-Dawley rats weighed 180 to 220 g were randomly divided into 4 groups, and with vehicle or three different dose of leonurine crystal form A treatment respectively: control group are treated with equal volume of DMSO, and treatment groups are treated with 30 mg/kg per day, 60 mg/kg per day, or 120 mg/kg per day of leonurine crystal form A. Leonurine crystal form A was dissolved in DMSO at concentrates of 30 mg/ml, 60 mg/ml and 120 mg/ml, and the volume of vehicle administered intragastrically in each rat was 1 ml per kg of body weight. The rats were treated with leonurine crystal form A or DMSO once a day for 3 weeks. Oral glucose tolerance test (OGTT) was detected at third week, and the rats were fasted 12 h before OGTT experiment. OGTT experiment was performed 1 h after administered of drugs. Blood glucose and body weight were tested before OGTT. OGTT: Rats were given 25% glucose solution (2 g/kg of body weight, 8 ml/kg) by […], and blood glucose concentration was determined from the tail vein at 15, 30, 60 and 120 min. The drug was discontinued for one week after OGTT, and the body weight and fasting blood-glucose were detected at forth week.
The data were analyzed by SPSS statistical software (version 11.5), and results were expressed as the mean±standard error of the mean (mean±SEM). Multiple group comparisons were tested by one-way analysis of variance (ANOVA). P<0.05 was considered as statistically significant. […] At 15 min time point, the glucose tolerance curve was shifted down. […] Moreover, at 60 min time point, the glucose tolerance curve also was moved down at the dose of 30 mg/kg/d and 120 mg/kg/d.

[2] = previous toxicological study; cited from earlier work
Sprague-Dawley rats [3] = test: Chronic administration for 3 weeks, fasting blood glucose of rats; assay type: in vivo, rat; settings: vs solvent control, listed as leonurine crystal form A
Procedure: Forty male Sprague-Dawley rats weighed 180 to 220 g were randomly divided into 4 groups (10 rats each group): control group are treated with equal volume of DMSO, and the treatment groups were administered at 30 mg/kg per day, 60 mg/kg per day, and 120 mg/kg per day of leonurine crystal form A respectively, where leonurine crystal form A was dissolved in DMSO at concentrates of 30 mg/ml, 60 mg/ml and 120 mg/ml, and the volume of vehicle administered intragastrically in each rat was 1 ml per kg of body weight. The rats were treated with leonurine crystal form A or DMSO once a day continuously for 3 weeks, and the body weight and fasting blood-glucose were detected at third week. The rats were fasted (allowed water ad libitum) for 12 h before experiment. Fasting blood-glucose and body weight were tested after 1 h of administered drugs. The rats were not given drugs on the next days for one week, and the body weight and fasting blood-glucose were detected at forth week. The data were analyzed by SPSS statistical software (version 11.5), and results were expressed as the mean±standard error of the mean (mean±SEM). Multiple group comparisons were tested by one-way analysis of variance (ANOVA). P<0.05 was considered as statistically significant.

[4] = Hygroscopicity, dynamic vapor sorption (DVS), 0-95% RH; assay type: physicochemical; settings: for hygroscopicity (in words) / change of crystal form: range of 0-95% relative humidity
Procedure: Dynamic vapor sorption (DVS) method, instrument model: SMS DVS Intrinsic, 0˜95% RH, temperature: 25° C.; FTIR method, instrument model: Nicolet 6700, sectral range: 4000˜400 cm^−1, resolution ratio: 4 cm^−1, scanning times: 32, the infrared spectra of the samples were determined by KBr pressed-disk technique method, temperature: 25° C.;
In this invention, it is named as leonurine crystal form A, which is monohydrate crystal form, square block crystal (as shown in FIG. 13), no crystal transformation before melting, dehydrates at 120˜150° C. and transform into anhydrous crystal form B, and decomposes at about 250° C. […] Under the condition of, in the suspension experiment at 25° C., in methanol, ethanol, isopropanol, acetone, acetonitrile, tetrahydrofuran, nitromethane, ethyl acetate, isopropyl acetate, isoamyl alcohol, methyl tert-butyl ether, toluene, methyl isobutyl ketone, n-hexane, n-heptane, ether, dichloromethane, chloroform, petroleum ether, water and other solvents; and under the condition of, in the suspension experiment at 50° C., in methanol, ethanol, acetone, methyl ethyl ketone, isopropyl acetate, methyl tert-butyl ether, toluene, n-hexane, n-heptane, diethyl ether, chloroform, petroleum ether, water and other solvents; and under most solvent conditions in suspension and volatilization of mixed solvents at 25° C. and 50° C., form A can be obtained. […] In a range of 0˜95% RH, the dehydration and water absorption behavior of the crystal form is very weak.

[5] = listed as leonurine crystal form A

## COc1cc(C(=O)OCCCCNC(=N)N)cc(OC)c1O [crystal form A, 4-guanidino-1-butyl 4-hydroxy-3,5-dimethoxybenzoate]
Sprague-Dawley rats [1]; 30 mg/kg/d for 3 weeks, 15 minute time point, 30 mg/kg/day
  glucose tolerance curve (blood glucose): reduce the degree of elevation of blood glucose; also recorded: decrease the level of blood glucose
Sprague-Dawley rats [1]; 30 mg/kg/d for 3 weeks, 60 minute time point, 30 mg/kg/day
  glucose tolerance curve (blood glucose): reduce the degree of elevation of blood glucose; also recorded: decrease the level of blood glucose
Sprague-Dawley rats [1]; 120 mg/kg/d for 3 weeks, 60 minute time point, 120 mg/kg/day
  glucose tolerance curve (blood glucose): reduce the degree of elevation of blood glucose; also recorded: decrease the level of blood glucose
[2]
  toxicity: very low
Sprague-Dawley rats [3]; 60 mg/kg/d for 3 weeks, fourth week
  fasting blood glucose of rats: significantly reduced; also recorded: decreased fasting blood glucose
Sprague-Dawley rats [3]; 60 mg/kg/d, after 3 weeks of continuous administration
  fasting blood glucose of rats: had not statistically difference; also recorded: not statistically significant
Sprague-Dawley rats [3]; 120 mg/kg/d for 3 weeks, fourth week
  fasting blood glucose of rats: significantly reduced; also recorded: decreased fasting blood glucose
Sprague-Dawley rats [3]; 120 mg/kg/d, after 3 weeks of continuous administration
  fasting blood glucose of rats: significant reduce; also recorded: significantly decreased
[4]; 60% RH
  hygroscopicity, water absorption: 60% RH, water absorption 0.07%
[4]; 80% RH
  hygroscopicity, water absorption: 80% RH, water absorption 0.12%
[4]
  hygroscopicity (in words): no or almost no hygroscopicity
[4]; listed as Crystal Form A
  change of crystal form: didn't change
  hygroscopicity (in words): no or almost no hygroscopicity
[4]; [5]
  change of crystal form: does not change
  hygroscopicity (in words): no or almost no hygroscopicity
[4]; relative humidity from 0 to 95%
  moisture absorption: about 0.15%
